The target of assay [1] is T1, Jack bean urease (Canavalia ensiformis, UniProt P07374).
T1 construct: purchased Sigma Aldrich
Put plainly: biochemical. The source says: (§1) The novel synthesized Morin derivatives were examined for in- vitro urease inhibitory action by determining the ammonia concentration released during the reaction by indophenol technique as described by Weatherburn as well as for antioxidant nature by determining the ability of compounds to donate hydrogen and electrons using DPPH method.
Urease enzyme inhibition investigation studies for all synthesized compounds were done by the method developed by Weatherburn named Indophenol against Jack Bean Urease. Briefly, incubation of solution of Jack bean protein 25 μL was done at temperature of 30 °C for a period of 15 min with 55 μL of buffers solution having 100 mM urea and 5 μL of test solution in 96-well plates. 45 μL phenol solution composing phenol 1% w/v and solution of sodium nitroprusside 0.005% w/v and alkali reagent 70 μL composed of sodium hydroxide 0.5% w/v and active sodium hypochloride solution 0.1% were mixed to every well. The measurement of increase in absorption at 625 nm was done after 50 min by help of a microplate reader (Molecular Device, USA). Readings were recorded in triplicate set in a final volume of 200 μL using thiourea as standard. Each assay was performed at pH 8.2 (0.01 M K2HPO4.3H2O, 0.01 M […] and 1 mM EDTA). Calculation of Inhibition in percentage of synthesized derivatives was done by the formula given as: I\% =AControl-ASample/AControl×100 where, Acontrol is control absorbance; Asample is test absorbance

A short description of assay [2]: DPPH radical scavenging (antioxidant) assay. Conditions: DPPH 300 µM, 30 min, mean SEM.
Text: as §1
DPPH method was adopted for measuring the antioxidant nature of the synthesized derivatives. According to this method synthesized compounds were allowed to react for 0.5 h. at 37 °C with stable free radical, 1, 1-diphenyl-2-picrylhydrazyl radical (DPPH). The DPPH was taken in a concentration of 300 µM. Decrease in value of absorption at […] was measured after the period of incubation using a microplate reader using ascorbic acid as a standard. Molecule which can donate a proton to DPPH and cause its reduction act as an antioxidant. Following reduction deep violet coloured DPPH solution changes to yellow depending upon the nature of antioxidant compound, which brings a measurable decrease in value of absorption at 517 nm. The proton or electron donating capacity of the derivative was estimated from the fading of deep purple colored methanolic solution of 1, 1-diphenylpicrylhydrazyl (DPPH). Incubation of mixture was done at room temperature for 30 min and measurements were done at 517 against blank. Calculation of percentage inhibition was done by following formula: I\% =AControl-ASample/AControl×100 where, Acontrol is control absorbance; Asample is test absorbance
(In general: Loss of DPPH colour is used to gauge radical scavenging.)

Assay [3] has as its system H. pylori bacterium (ATCC 43504, DSM 4867). As to the kind of experiment: Anti-H. pylori activity, well diffusion technique. It counts as cell-based, Helicobacter pylori. Conditions: 2500 µg per well, 24–48 h, 35 °C. As to the method: (§2) Compounds M2b and M2i which were found potent in urease inhibition and antioxidant activity as well as in terms of docking score were tested further against antibacterial efficiency against Helicobacter pylori ATCC 43504, DSM 4867 using AHA as a standard and DMSO as control. […] It could be concluded that compound M2i indicated excellent antibacterial action against H. Pylori, antioxidant and urease inhibitory activity.
(§3) Novel synthesized derivatives were investigated against H. pylori bacterium (ATCC 43504 DSM 4867, AHA as standard) for their antibacterial activity by using Well diffusion technique. The stock solution of compounds in DMSO (1000 μg/mL) were prepared. Cell suspension was prepared from culture grown on BHI broth. The cell suspensions of all the cultures were adjusted to 1–2 × 10^5cells/ml. Helicobacter pylori (100 µl) was inoculated by spread plate technique on agar plates (90 mm). Agar wells (5 mm) were made on H. pylori inoculated media and impregnated with 2500 µg of each sample and standard which were incubated @ 35 °C for 24–48 h with 5% CO2 and observed for zone of inhibition around the well. MIC was determined against Helicobacter pylori by micro broth dilution technique as per NCCLS method.
In general terms: Agar diffusion results depend on both activity and mobility in agar.

Assay [4] has the same test system. As to the kind of experiment: MIC against Helicobacter pylori, micro broth dilution technique. As to conditions: NCCLS method. It counts as cell-based. On the procedure:
as §2, §3
(In broth dilution the organism is exposed to a series of concentrations in liquid medium.)

Where [5] appears, read: read-out: IC50 urease inhibition, Jack bean urease, indophenol method, pH 8.2, mean SEM.

SMILES strings stand for the structures. Converted amounts (≈) assume the structure as drawn. Where two headings read alike, the source gives them in different places.

T1 sequence (P07374 whole entry, looked up): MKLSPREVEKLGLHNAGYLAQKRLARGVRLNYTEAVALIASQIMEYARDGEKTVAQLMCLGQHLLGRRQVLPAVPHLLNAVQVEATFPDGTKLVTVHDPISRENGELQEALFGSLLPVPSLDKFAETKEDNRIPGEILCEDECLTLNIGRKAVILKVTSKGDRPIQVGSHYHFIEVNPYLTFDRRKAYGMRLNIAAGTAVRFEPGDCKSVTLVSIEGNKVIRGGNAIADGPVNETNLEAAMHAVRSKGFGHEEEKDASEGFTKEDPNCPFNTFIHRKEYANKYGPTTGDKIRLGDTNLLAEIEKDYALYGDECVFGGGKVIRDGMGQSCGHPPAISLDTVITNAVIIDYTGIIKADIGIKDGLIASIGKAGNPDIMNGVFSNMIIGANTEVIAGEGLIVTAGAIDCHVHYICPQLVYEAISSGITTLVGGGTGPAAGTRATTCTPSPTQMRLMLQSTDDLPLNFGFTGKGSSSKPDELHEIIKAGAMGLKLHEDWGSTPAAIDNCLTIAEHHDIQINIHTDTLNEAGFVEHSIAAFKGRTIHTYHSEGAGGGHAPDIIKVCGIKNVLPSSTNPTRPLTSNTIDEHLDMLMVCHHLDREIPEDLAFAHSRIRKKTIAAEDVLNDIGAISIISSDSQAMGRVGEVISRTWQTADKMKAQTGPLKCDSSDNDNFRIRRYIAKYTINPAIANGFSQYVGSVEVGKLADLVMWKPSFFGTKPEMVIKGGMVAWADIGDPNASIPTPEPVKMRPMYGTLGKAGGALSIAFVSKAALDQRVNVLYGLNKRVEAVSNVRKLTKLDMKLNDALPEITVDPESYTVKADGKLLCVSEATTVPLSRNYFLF

Broadly, the IC50 is the concentration that gives 50% inhibition. Turning to `Oc1ccc(-c2oc3cc(O)cc(O)c3c(=NC(=S)Nc3ccccc3)c2O)c(O)c1` [Compound M2a, N-((4E)-2-(2,4-dihydroxyphenyl)-3,5,7-trihydroxy-4H-chromen-4-ylidene)-N-phenylthiourea], the results for the IC50 in assay [1] and in assay [2] were 12.71 ± 0.027 µM and 7.795 ± 0.003 µM, respectively.
As to `O=[N+]([O-])c1ccccc1NC(=S)N=c1c(O)c(-c2ccc(O)cc2O)oc2cc(O)cc(O)c12` [Compound M2c, N-((4E)-2-(2,4-dihydroxyphenyl)-3,5,7-trihydroxy-4H-chromen-4-ylidene)-N-(2-nitrophenyl)thiourea], the results for the concentration for half-maximal inhibition (IC50) in assay [1] (setting [5]) and in assay [2] were 19.5 ± 0.005 µM and 10.18 ± 0.006 µM, respectively.
On to `Oc1ccc(-c2oc3cc(O)cc(O)c3/c(=N/C(=S)NNc3ccccc3)c2O)c(O)c1` [Compound M4, (4Z)-4-(3,5,7-trihydroxy-2-(2,4-dihydroxyphenyl)-4H-chromen-4-ylidene)-1-phenylthiosemicarbazide], for which the results for the 50% inhibitory concentration (IC50) in assay [1] and in assay [2] were 18.96 ± 0.011 µM and 8.099 ± 0.018 µM, respectively.
Take `Oc1ccc(-c2oc3cc(O)cc(O)c3/c(=N/Nc3ccccc3)c2O)c(O)c1` [Compound M5, (4Z)-2-(2,4-dihydroxyphenyl)-4-(2-phenylhydrazinylidene)-4H-chromene-3,5,7-triol]: the figures for the IC50 in assay [1] and in assay [2] were 17.68 ± 0.08 µM and 8.78 ± 0.008 µM, respectively.
The matching figures for `NC(=S)N/N=c1\c(O)c(-c2ccc(O)cc2O)oc2cc(O)cc(O)c12` [Compound M3, (1Z)-1-(3,5,7-trihydroxy-2-(2,4-dihydroxyphenyl)-4H-chromen-4-ylidene)thiosemicarbazide]: 17.9 ± 0.007 µM and 11.9 ± 0.031 µM.
Consider `NC(N)=S` [Thiourea, reference compound], for which the IC50 in assay [1] (Jack bean urease, indophenol method, pH 8.2, mean SEM, read-out: IC50 urease inhibition) worked out at 22.8 ± 0.011 µM.
The zone of inhibition is the extent of the growth-free halo in a diffusion test. A word on the MIC: it is the lowest concentration found to suppress growth. The low end stands for inhibition by little substance, the high end for a need for much substance. As to `CC(=O)NO` [AHA, acetohydroxamic acid], the zone of inhibition in assay [3] amounted to 9.00 ± 0.50 mm. For the same molecule, in assay [4], the minimal inhibitory concentration (MIC) amounted to 1000 µg/mL (≈ 13.3 mM).
As for `Oc1ccc(-c2oc3cc(O)cc(O)c3c(=NC(=S)Nc3ccccc3Cl)c2O)c(O)c1` [Compound M2b, N-(2-chlorophenyl)-N-((4E)-2-(2,4-dihydroxyphenyl)-3,5,7-trihydroxy-4H-chromen-4-ylidene)thiourea], in assay [2], half-maximal inhibition (IC50) was put at 7.37 ± 0.024 µM.
With `O=c1c(O)c(-c2ccc(O)cc2O)oc2cc(O)cc(O)c12` [Morin, 3,5,7, 2′, 4′-pentahydroxyflavone], the IC50 turned out to be 21.77 ± 0.016 µM in assay [1] and 12.83 ± 0.028 µM in assay [2].
For the molecule `O=C1O[C@H]([C@@H](O)CO)C(O)=C1O` [Ascorbic acid, reference compound], in assay [2], the IC50 was 8.59 ± 0.004 µM.
Consider `O=[N+]([O-])c1ccc(NC(=S)N=c2c(O)c(-c3ccc(O)cc3O)oc3cc(O)cc(O)c23)cc1` [Compound M2e, N-((4E)-2-(2,4-dihydroxyphenyl)-3,5,7-trihydroxy-4H-chromen-4-ylidene)-N-(4-nitrophenyl)thiourea], for which the IC50 came out at 20.2 ± 0.01 µM in assay [1] (setting [5]) and 8.744 ± 0.008 µM in assay [2].
The matching figures for `O=[N+]([O-])c1cccc(NC(=S)N=c2c(O)c(-c3ccc(O)cc3O)oc3cc(O)cc(O)c23)c1` [Compound M2d, N-((4E)-2-(2,4-dihydroxyphenyl)-3,5,7-trihydroxy-4H-chromen-4-ylidene)-N-(3-nitrophenyl)thiourea]: 20.41 ± 0.031 µM and 11.56 ± 0.013 µM.

The values are drawn from paper PMC6661831, “Molecular docking, synthesis, kinetics study, structure–activity relationship and ADMET analysis of morin analogous as Helicobacter pylori urease inhibitors” (BMC Chemistry, 2019).
